Data on nine compounds can be found in ChEMBL document CHEMBL5360607, “The Hitchhiker's Guide to Deep Learning Driven Generative Chemistry” (ACS Med Chem Lett, 2023).

Test [1] concerns the target Tyrosine-protein kinase JAK2 (Homo sapiens) (UniProt O60674). The experiment in a line: Inhibition of JAK2 (unknown origin) at 1 uM relative to control.
Test [2] concerns the target T1, Receptor-type tyrosine-protein kinase FLT3 (Homo sapiens, UniProt P36888).
T1 sequence (P36888 whole entry): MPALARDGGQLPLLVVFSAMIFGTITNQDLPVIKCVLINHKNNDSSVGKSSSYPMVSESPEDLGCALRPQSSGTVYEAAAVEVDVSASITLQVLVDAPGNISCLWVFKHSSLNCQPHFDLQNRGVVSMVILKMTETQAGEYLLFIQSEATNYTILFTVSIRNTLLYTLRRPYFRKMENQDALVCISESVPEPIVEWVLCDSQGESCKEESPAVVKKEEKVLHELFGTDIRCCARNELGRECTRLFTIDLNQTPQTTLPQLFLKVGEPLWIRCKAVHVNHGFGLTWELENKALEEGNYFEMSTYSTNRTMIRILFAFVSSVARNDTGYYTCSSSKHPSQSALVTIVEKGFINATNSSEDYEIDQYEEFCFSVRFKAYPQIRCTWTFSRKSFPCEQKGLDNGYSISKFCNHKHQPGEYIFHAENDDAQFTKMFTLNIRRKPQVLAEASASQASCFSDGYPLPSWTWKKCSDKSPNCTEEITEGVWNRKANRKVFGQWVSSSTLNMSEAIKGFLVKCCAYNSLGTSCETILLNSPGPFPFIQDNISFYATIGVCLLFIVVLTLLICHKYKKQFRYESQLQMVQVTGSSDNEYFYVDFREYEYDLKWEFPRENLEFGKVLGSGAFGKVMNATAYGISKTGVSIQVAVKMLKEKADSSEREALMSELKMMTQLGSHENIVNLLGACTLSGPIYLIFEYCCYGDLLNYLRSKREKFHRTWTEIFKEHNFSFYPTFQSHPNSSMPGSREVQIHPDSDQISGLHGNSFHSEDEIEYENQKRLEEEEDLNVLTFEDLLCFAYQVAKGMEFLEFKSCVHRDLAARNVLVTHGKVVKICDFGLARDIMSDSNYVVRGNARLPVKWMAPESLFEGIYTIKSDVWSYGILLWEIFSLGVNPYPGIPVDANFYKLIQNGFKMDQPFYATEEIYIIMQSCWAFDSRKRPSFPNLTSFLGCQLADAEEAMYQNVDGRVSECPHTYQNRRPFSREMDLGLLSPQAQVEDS
Briefly: Inhibition of FLT3 (unknown origin).

In test [3] the target is T2, Macrophage colony-stimulating factor 1 receptor (Homo sapiens, UniProt P07333). Briefly: Inhibition of FMS (unknown origin).
Test [4] addresses Tyrosine-protein kinase BTK (Homo sapiens, UniProt Q06187). The experiment in a line: Inhibition of BTK (unknown origin).
The target of test [5] is Adenosine receptor A2a (Homo sapiens, UniProt P29274). Briefly: Binding affinity to adenosine receptor A2a (unknown origin) assessed as inhibition constant.
The target in test [6] is T3, Adenosine receptor A1 (Homo sapiens, UniProt P30542).
T3 sequence (P30542 whole entry): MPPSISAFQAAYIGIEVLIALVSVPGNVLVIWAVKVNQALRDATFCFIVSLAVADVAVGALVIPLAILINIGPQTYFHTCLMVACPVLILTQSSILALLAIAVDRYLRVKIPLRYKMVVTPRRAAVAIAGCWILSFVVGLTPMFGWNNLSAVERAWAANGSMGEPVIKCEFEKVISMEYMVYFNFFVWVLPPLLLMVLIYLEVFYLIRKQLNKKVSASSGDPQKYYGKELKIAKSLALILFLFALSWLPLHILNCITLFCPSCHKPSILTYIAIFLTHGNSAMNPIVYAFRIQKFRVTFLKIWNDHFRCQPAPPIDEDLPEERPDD
Briefly: Binding affinity to adenosine receptor A1 (unknown origin) assessed as inhibition constant.

For test [7], the target named is T2, Macrophage colony-stimulating factor 1 receptor. The experiment in a line: Inhibition of CSF1R (unknown origin).
In test [8] the target is Fibroblast growth factor receptor 1 (Homo sapiens, UniProt P11362). Briefly: Inhibition of FGFR1 (unknown origin).
The target of test [9] is Fibroblast growth factor receptor 2 (Homo sapiens, UniProt P21802). The experiment in a line: Inhibition of FGFR2 (unknown origin).
The target of test [10] is Fibroblast growth factor receptor 3 (Homo sapiens, UniProt P22607). The experiment in a line: Inhibition of FGFR3 (unknown origin).
In test [11] the target is Fibroblast growth factor receptor 4 (Homo sapiens, UniProt P22455). The experiment in a line: Inhibition of FGFR4 (unknown origin).
Test [12] addresses Receptor-type tyrosine-protein kinase FLT3 (Homo sapiens, UniProt P36888, D835Y). Briefly: Inhibition of FLT3 D835Y (unknown origin).
Test [13] addresses T4, High affinity nerve growth factor receptor (Homo sapiens, UniProt P04629). Briefly: Inhibition of TRKA (unknown origin) at 10 uM relative to control.
For test [14], the species on record is Homo sapiens. The experiment in a line: Inhibition of FLT (unknown origin) at 10 uM relative to control.
Test [15] deals with Maternal embryonic leucine zipper kinase (Homo sapiens) (UniProt Q14680). The experiment in a line: Inhibition of MELK (unknown origin) at 10 uM relative to control.
Test [16] concerns the target Fibroblast growth factor receptor (Homo sapiens) (UniProt P22607+P11362+P22455+P21802). The experiment in a line: Inhibition of FGFR (unknown origin) at 10 uM relative to control. The test is classed as protein assay.
In test [17] the target is Protein kinase C (PKC) (Homo sapiens) (UniProt O94806+P41743+P17252+P05129+Q05655+P05771+Q05513+Q02156+P24723+Q15139+Q04759). Briefly: Inhibition of PKC (unknown origin) at 10 uM relative to control. The format is protein assay.
For test [18], the target named is T4, High affinity nerve growth factor receptor. The experiment in a line: Inhibition of TRKA (unknown origin).
Target sequence in this assay (P04629 whole entry): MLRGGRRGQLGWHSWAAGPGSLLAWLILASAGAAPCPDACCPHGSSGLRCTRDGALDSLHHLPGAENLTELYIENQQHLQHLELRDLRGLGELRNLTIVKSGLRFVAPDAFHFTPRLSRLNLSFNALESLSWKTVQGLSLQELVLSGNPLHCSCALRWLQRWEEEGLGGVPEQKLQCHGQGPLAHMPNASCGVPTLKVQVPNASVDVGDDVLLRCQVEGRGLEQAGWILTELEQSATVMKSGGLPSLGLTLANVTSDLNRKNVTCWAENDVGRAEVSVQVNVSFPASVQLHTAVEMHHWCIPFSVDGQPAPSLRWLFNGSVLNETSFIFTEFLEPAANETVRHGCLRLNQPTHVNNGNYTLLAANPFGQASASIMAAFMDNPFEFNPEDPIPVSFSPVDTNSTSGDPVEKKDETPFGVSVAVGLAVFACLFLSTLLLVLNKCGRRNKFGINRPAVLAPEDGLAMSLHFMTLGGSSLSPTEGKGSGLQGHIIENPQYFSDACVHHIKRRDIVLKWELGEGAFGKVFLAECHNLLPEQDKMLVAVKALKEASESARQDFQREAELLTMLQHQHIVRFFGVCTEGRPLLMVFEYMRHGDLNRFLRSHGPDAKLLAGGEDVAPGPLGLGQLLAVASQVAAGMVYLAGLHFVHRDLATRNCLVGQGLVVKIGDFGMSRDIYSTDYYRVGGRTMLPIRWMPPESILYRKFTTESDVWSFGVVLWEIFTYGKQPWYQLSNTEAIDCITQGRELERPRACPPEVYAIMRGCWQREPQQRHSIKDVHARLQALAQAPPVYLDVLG
Test [19] has as its target Serine/threonine-protein kinase B-raf (Homo sapiens, UniProt P15056). The experiment in a line: Inhibition of BRAF (unknown origin).

Where only a bound is given, the exact number is not on record here.

T2 sequence (P07333 whole entry): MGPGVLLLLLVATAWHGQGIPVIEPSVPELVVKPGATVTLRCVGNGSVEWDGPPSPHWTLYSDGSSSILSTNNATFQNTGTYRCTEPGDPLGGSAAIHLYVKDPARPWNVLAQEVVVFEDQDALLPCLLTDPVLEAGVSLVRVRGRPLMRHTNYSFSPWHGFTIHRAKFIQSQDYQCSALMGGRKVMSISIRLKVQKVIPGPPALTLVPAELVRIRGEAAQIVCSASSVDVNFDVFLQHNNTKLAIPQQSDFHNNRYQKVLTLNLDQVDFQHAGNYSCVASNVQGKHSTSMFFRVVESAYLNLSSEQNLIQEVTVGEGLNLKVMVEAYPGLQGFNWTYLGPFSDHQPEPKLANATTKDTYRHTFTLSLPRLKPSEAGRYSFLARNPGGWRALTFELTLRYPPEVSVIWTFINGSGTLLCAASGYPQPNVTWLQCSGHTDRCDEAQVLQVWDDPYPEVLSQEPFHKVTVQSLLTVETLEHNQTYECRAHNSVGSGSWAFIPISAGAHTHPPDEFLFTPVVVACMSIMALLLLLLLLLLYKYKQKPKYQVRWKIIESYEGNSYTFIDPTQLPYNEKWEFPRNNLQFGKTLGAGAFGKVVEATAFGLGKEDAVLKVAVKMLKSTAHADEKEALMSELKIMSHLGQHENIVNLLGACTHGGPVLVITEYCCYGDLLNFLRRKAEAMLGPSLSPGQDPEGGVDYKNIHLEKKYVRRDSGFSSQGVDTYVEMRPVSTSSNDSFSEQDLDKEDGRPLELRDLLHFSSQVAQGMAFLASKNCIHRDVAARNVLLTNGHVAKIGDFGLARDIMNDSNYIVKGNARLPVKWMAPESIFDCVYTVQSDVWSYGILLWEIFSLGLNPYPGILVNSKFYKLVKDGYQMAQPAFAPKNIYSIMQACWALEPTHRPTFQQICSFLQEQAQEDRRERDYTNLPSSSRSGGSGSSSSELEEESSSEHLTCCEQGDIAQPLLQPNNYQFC
Sequence of Tyrosine-protein kinase JAK2 (Homo sapiens) (O60674 whole entry): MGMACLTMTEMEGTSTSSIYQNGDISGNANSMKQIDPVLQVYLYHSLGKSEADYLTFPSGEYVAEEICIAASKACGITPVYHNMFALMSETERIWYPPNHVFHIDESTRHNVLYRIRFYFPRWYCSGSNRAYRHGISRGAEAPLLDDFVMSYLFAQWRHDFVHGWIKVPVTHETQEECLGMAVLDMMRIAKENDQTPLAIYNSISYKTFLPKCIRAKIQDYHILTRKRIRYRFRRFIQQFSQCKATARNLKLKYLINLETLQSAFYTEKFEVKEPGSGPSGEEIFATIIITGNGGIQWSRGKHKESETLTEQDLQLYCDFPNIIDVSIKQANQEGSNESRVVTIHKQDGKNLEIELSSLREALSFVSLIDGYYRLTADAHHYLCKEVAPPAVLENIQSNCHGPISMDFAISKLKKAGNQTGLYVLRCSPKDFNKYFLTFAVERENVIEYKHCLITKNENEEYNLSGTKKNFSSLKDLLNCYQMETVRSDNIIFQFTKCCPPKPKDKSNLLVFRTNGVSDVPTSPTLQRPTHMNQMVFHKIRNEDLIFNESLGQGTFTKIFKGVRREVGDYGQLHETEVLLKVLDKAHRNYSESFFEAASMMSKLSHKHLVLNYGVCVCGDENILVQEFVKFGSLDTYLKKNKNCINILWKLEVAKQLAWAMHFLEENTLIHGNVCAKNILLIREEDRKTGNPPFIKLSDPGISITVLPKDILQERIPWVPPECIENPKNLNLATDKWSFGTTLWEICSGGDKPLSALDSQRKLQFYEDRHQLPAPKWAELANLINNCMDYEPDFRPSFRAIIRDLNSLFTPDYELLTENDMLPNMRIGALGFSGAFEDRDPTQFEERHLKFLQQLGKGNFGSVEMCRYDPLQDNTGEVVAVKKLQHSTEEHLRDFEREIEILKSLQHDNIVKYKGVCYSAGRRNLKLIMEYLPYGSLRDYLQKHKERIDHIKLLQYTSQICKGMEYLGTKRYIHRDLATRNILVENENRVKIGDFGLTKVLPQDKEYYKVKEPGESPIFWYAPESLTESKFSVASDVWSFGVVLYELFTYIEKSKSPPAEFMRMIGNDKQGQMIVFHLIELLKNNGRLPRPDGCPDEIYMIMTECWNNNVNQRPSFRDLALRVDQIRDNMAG
Sequence of Adenosine receptor A2a (P29274 whole entry): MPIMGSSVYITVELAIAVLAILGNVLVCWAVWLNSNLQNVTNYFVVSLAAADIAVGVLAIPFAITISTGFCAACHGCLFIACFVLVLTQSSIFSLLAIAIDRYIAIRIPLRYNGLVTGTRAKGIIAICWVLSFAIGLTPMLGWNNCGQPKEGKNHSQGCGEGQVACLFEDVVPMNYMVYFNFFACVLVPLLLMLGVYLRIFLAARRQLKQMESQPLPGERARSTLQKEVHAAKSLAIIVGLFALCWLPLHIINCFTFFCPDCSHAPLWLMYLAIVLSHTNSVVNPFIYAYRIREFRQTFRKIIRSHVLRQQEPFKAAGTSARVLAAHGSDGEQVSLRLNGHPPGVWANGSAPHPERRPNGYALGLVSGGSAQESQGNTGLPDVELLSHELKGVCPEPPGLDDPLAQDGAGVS
Sequence of Fibroblast growth factor receptor 1 (P11362 whole entry): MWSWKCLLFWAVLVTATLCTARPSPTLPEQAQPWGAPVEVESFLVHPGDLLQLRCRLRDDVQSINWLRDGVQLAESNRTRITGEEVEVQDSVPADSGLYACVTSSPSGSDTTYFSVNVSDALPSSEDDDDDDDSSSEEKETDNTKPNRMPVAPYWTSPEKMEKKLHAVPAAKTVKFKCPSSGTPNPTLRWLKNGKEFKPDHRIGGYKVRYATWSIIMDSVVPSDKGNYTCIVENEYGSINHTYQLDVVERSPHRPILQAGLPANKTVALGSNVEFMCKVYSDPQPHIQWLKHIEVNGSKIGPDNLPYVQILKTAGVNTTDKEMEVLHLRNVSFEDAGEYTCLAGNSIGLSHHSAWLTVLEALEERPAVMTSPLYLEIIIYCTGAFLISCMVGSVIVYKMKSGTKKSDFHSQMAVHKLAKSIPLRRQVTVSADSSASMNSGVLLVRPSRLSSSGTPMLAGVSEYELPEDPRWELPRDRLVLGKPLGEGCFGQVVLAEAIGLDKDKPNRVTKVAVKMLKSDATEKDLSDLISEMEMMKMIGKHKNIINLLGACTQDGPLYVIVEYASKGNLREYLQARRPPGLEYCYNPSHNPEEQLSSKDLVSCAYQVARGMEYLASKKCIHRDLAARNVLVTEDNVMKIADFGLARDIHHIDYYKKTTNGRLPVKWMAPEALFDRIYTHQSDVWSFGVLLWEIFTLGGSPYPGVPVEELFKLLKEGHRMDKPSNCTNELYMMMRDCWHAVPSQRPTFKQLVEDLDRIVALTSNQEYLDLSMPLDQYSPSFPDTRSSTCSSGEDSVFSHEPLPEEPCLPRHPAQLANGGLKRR
Sequence of Fibroblast growth factor receptor 3 (P22607 whole entry): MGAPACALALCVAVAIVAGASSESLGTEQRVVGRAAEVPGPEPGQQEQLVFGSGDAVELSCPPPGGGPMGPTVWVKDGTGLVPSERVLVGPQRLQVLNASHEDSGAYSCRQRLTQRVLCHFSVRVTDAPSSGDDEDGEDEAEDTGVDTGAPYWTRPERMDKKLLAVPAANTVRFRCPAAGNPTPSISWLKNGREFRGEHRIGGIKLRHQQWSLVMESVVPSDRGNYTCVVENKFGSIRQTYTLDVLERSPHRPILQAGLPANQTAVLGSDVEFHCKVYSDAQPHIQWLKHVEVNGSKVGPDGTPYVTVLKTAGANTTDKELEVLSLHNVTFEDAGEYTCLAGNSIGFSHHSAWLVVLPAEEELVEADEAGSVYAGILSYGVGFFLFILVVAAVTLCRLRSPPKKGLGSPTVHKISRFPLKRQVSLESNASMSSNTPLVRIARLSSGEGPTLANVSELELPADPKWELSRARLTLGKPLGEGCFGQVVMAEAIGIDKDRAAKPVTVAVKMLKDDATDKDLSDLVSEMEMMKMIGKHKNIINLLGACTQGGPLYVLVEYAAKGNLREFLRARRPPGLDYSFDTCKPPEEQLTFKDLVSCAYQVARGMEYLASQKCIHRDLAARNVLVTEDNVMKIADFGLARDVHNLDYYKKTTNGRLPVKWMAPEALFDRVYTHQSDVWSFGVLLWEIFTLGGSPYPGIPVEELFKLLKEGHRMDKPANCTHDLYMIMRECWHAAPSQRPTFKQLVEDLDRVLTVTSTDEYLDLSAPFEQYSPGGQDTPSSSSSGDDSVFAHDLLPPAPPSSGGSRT

As for `CNC(=O)c1ccccc1Nc1c(C(F)(F)F)cnc2[nH]c(-c3ccc(F)cc3)cc12`, the inhibition in test [1] stood at 88%.

Take `COc1ncc(CNc2ccc(Cc3c[nH]c4ncc(C(F)(F)F)cc34)c(F)n2)cc1F`: the IC50 in test [2] and in [3] was under 100 nM in each case.

With `COc1ccc(F)cc1C(=O)NCc1ccc(-c2nn(C3CCCC3)c3c(=O)[nH]nc(N)c23)cc1`, half-maximal inhibition in test [4] (IC50) required 0.5 nM.

In the case of `O=c1[nH]nc(NC2CCCC2)c2nnn(Cc3cccs3)c12`, the Ki was 895 nM in test [5] and 46.7 nM in [6].

In [7], `O=C(NCc1ccc(C(F)(F)F)nc1)Nc1ccc(Oc2ncnc3[nH]ccc23)cc1` registered an IC50 of 20 nM.

With `C=CC(=O)N1CC[C@H](n2cc(-c3cc4ccccc4o3)c3c(N)n[nH]c(=O)c32)C1`, the IC50 in test [8], in test [9], in test [10] and in test [11] was under 10 nM each time.

Consider `CN(C)S(=O)(=O)Nc1cccc(-c2cnn(-c3ccc(C(F)(F)F)cc3)c2)c1`, for which the 50% inhibitory concentration (IC50) in [2] turned out to be 13600 nM; in [12], 1830 nM; in test [18], 5800 nM. In addition, the inhibition in [13] amounted to 55%; in test [14], 45%; in test [15], 35%; in [16], 35%; in test [17] it was 35%.

`COc1cncc(-c2cn(-c3c(F)ccc(NS(=O)(=O)C(C)C)c3F)nn2)c1` came in with an EC50 in [19] of 493 nM. This counts as sub-micromolar.

In turn, `CN(c1ncccc1CNc1c(C#N)cnc2[nH]ccc12)S(C)(=O)=O` returned an inhibition in test [1] of 68%.

A word on the inhibition: it is the share of the control response that was lost under treatment. Low values mean a response near the control, high ones a response far below the control. The term IC50 denotes the concentration that inhibits the measured activity by half. Low values mean greater potency, high ones weaker potency. As usually defined, the Ki is a dissociation constant, usually derived from enzyme kinetics or from competition with a known ligand. In general, EC50 refers to the midpoint of the concentration-response curve.
